Test: xn = mol fraction of the nth substance listed
Conditions: for surface tension liquid-gas: Capillary rise; for viscosity / mass density: 100.8 kPa, Liquid; for viscosity: Falling or rolling sphere viscometry; for mass density: Vibrating tube method

OCc1ccccc1 [benzenemethanol] + CCO
Conditions	mass density [kg/m3]	surface tension liquid-gas [mN/m]	viscosity [mPa·s]
293.15 K, x2 = 0	1045.44	39.2	6.287
293.15 K, x2 = 0.05	1038.93	38.7	5.903
293.15 K, x2 = 0.1	1032.01	38.1	5.548
293.15 K, x2 = 0.1504	1024.72	37.5	5.197
293.15 K, x2 = 0.1999	1017.09	36.8	4.871
293.15 K, x2 = 0.2502	1008.95	36.1	4.55
293.15 K, x2 = 0.3003	1000.31	35.3	4.236
293.15 K, x2 = 0.3499	991.24	34.5	3.94
293.15 K, x2 = 0.3998	981.52	33.6	3.655
293.15 K, x2 = 0.45	971.12	32.7	3.377
293.15 K, x2 = 0.5001	960.01	31.8	3.107
293.15 K, x2 = 0.55	948.23	30.9	2.857
293.15 K, x2 = 0.5999	935.57	29.9	2.623
293.15 K, x2 = 0.65	921.93	28.9	2.392
293.15 K, x2 = 0.6997	907.34	28	2.169
293.15 K, x2 = 0.75	891.49	27.1	1.971
293.15 K, x2 = 0.7999	874.42	26.1	1.782
293.15 K, x2 = 0.8496	855.94	25.2	1.611
293.15 K, x2 = 0.8998	835.44	24.3	1.454
293.15 K, x2 = 0.95	813.26	23.3	1.305
303.15 K, x2 = 0	1037.45	38.1	4.579
303.15 K, x2 = 0.05	1030.91	37.5	4.276
303.15 K, x2 = 0.1	1024.02	36.9	4.006
303.15 K, x2 = 0.1504	1016.76	36.2	3.761
303.15 K, x2 = 0.1999	1009.06	35.5	3.529
303.15 K, x2 = 0.2502	1000.9	34.8	3.321
303.15 K, x2 = 0.3003	992.29	34.1	3.117
303.15 K, x2 = 0.3499	983.16	33.3	2.924
303.15 K, x2 = 0.3998	973.34	32.5	2.735
303.15 K, x2 = 0.45	962.91	31.6	2.542
303.15 K, x2 = 0.5001	951.76	30.7	2.368
303.15 K, x2 = 0.55	939.95	29.8	2.206
303.15 K, x2 = 0.5999	927.33	28.8	2.03
303.15 K, x2 = 0.65	913.64	27.8	1.873
303.15 K, x2 = 0.6997	898.99	26.9	1.716
303.15 K, x2 = 0.75	883.14	26	1.568
303.15 K, x2 = 0.7999	865.99	25.1	1.423
303.15 K, x2 = 0.8496	847.51	24.2	1.292
303.15 K, x2 = 0.8998	827.13	23.3	1.173
303.15 K, x2 = 0.95	805.04	22.3	1.06
313.15 K, x2 = 0	1029.61	37.2	3.335
313.15 K, x2 = 0.05	1023.04	36.6	3.171
313.15 K, x2 = 0.1	1016.21	35.9	3.002
313.15 K, x2 = 0.1504	1008.86	35.3	2.841
313.15 K, x2 = 0.1999	1001.16	34.6	2.688
313.15 K, x2 = 0.2502	992.96	33.9	2.539
313.15 K, x2 = 0.3003	984.28	33.2	2.389
313.15 K, x2 = 0.3499	975.05	32.4	2.244
313.15 K, x2 = 0.3998	965.24	31.6	2.101
313.15 K, x2 = 0.45	954.84	30.7	1.955
313.15 K, x2 = 0.5001	943.67	29.8	1.819
313.15 K, x2 = 0.55	931.78	28.9	1.684
313.15 K, x2 = 0.5999	919.04	27.9	1.561
313.15 K, x2 = 0.65	905.41	26.9	1.441
313.15 K, x2 = 0.6997	890.69	26	1.332
313.15 K, x2 = 0.75	874.75	25.1	1.236
313.15 K, x2 = 0.7999	857.51	24.2	1.146
313.15 K, x2 = 0.8496	838.83	23.3	1.048
313.15 K, x2 = 0.8998	818.48	22.4	0.972
313.15 K, x2 = 0.95	796.32	21.5	0.899
323.15 K, x2 = 0	1021.5	36.3	2.545
323.15 K, x2 = 0.05	1014.86	35.6	2.439
323.15 K, x2 = 0.1	1007.98	34.9	2.337
323.15 K, x2 = 0.1504	1000.57	34.2	2.238
323.15 K, x2 = 0.1999	992.89	33.5	2.142
323.15 K, x2 = 0.2502	984.67	32.8	2.041
323.15 K, x2 = 0.3003	975.99	32.1	1.941
323.15 K, x2 = 0.3499	966.71	31.3	1.844
323.15 K, x2 = 0.3998	956.84	30.5	1.746
323.15 K, x2 = 0.45	946.37	29.6	1.649
323.15 K, x2 = 0.5001	935.23	28.7	1.556
323.15 K, x2 = 0.55	923.28	27.8	1.462
323.15 K, x2 = 0.5999	910.48	26.8	1.368
323.15 K, x2 = 0.65	896.61	25.8	1.279
323.15 K, x2 = 0.6997	881.89	24.8	1.189
323.15 K, x2 = 0.75	865.88	23.9	1.105
323.15 K, x2 = 0.7999	848.64	23	1.022
323.15 K, x2 = 0.8496	830.07	22.1	0.937
323.15 K, x2 = 0.8998	809.62	21.2	0.854
323.15 K, x2 = 0.95	787.41	20.3	0.774
